52 molecules from patent publication US6376478B1, “Pharmaceutical compositions and methods for treating anxiety, anxiety disorders and memory impairment using naaladase inhibitors” (Guilford Pharmaceuticals Inc., priority 1999, dated 2002) can be followed below.

Values joined by “and” are separate entries in the source; they are usually repeats but may differ in a detail not shown here. Equal entries are not always repeated. Marks after values point to notes of the source that are not given here.

The target in one assay is NAALADase (Homo sapiens, UniProt Q04609). Kind of assay: In vitro inhibition of NAALADase activity. Format: biochemical.
A short description of assay [1]: Passive avoidance anxiolytic model (shuttlebox, latency to cross). In kind it is in vivo. Conditions: for Latency to Cross, Acquisition Trial, MEAN / Latency to Cross, Acquisition Trial, individual animals: day prior to dosing; for Latency to Cross, Acquisition Trial, individual animals / Latency to Cross, Retention Trial, individual animals: 100 mg/kg; for performance compared with flurazepam in passive avoidance: in some experiments. An excerpt:
The passive avoidance test consists of an acquisition and a retention trial. On the day prior to dosing, the animal is placed into the shuttlebox and allowed to acclimate. A conditioned stimulus (light) is presented for approximately 100 seconds. When the animal crosses to the dark compartment, a mild (0.5 mA) footshock is presented until the animal returns to the lighted compartment or for approximately 10 seconds. Animals failing to cross during acquisition trial is randomly replaced. The day following acquisition, animals are administered test article, saline or flurazepam 10 minutes prior to being placed in the shuttlebox and tested for retention as described above. Latency to cross (in seconds) is recorded.

Where [2] appears, read: Compound 2 100 mg/kg IP group, first study (animals 31-45).
[3] abbreviates: Compound 2 100 mg/kg IP group, second study (animals 103-414).

NAALADase, sequence (Q04609 whole entry): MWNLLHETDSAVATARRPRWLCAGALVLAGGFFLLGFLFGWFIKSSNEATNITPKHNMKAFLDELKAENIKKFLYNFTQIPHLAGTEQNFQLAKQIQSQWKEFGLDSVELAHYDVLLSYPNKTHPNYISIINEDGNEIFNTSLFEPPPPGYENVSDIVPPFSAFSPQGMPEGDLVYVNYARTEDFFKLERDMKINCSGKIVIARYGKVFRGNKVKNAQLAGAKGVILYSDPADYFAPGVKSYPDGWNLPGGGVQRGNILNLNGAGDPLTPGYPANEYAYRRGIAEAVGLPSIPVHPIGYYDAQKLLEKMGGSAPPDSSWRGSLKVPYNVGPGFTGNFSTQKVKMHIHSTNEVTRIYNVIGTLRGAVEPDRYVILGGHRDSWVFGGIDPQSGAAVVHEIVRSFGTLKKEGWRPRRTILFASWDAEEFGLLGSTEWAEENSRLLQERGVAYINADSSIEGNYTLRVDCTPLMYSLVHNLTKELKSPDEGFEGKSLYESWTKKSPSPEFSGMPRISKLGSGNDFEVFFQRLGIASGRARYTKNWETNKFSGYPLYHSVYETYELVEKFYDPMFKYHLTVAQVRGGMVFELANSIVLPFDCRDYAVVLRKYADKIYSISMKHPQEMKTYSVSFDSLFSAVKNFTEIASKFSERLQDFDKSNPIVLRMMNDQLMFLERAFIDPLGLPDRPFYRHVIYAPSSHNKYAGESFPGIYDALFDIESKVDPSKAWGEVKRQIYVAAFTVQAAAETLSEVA

In general, Ki refers to the dissociation constant of the complex between target and ligand, obtained from inhibition or displacement. Low values mean tighter binding, high ones weaker binding. In turn, `O=C(O)CCC(CC(S)c1cccc2ccccc12)C(=O)O` (stereo not drawn) showed a Ki at NAALADase of 10000 nM.

Molecule `O=C(O)CCC(CP(=O)(O)Cc1ccccc1)C(=O)O` (stereo not drawn) gave a Ki on NAALADase of 53 nM.

As to `O=C(O)CCC(CP(=O)(O)c1ccccc1)C(=O)O` (stereo not drawn), at NAALADase, the Ki turned out to be 36 nM.

With `CCCCP(=O)(O)CC(CCC(=O)O)C(=O)O` (stereo not drawn), the Ki on NAALADase was determined as 114 nM.

The molecule `Cc1cccc(P(=O)(O)CC(CCC(=O)O)C(=O)O)c1` (stereo not drawn) showed a Ki at NAALADase of 180 nM.

Consider `O=C(O)CCC(CP(=O)(O)CCc1ccccc1)C(=O)O` (stereo not drawn), for which, on NAALADase, the inhibitory constant (Ki) is 148 nM.

As to `O=C(O)CCC(CP(=O)(O)CCCc1ccccc1)C(=O)O` (stereo not drawn), on NAALADase, affinity was put at a Ki of 232 nM.

Molecule `O=C(O)CCC(CP(=O)(O)c1ccc(F)cc1)C(=O)O` (stereo not drawn) yielded a Ki at NAALADase of 532 nM.

As to `CP(=O)(O)CC(CCC(=O)O)C(=O)O` (stereo not drawn), affinity on NAALADase was put at a Ki of 1100 nM.

`Cc1ccc(CP(=O)(O)CC(CCC(=O)O)C(=O)O)cc1` (stereo not drawn): at NAALADase, the inhibition constant Ki amounted to 68 nM.

With `O=C(O)CCC(CP(=O)(O)Cc1ccc(F)cc1)C(=O)O` (stereo not drawn), on NAALADase, the inhibition constant Ki was 70 nM.

With `O=C(O)CCC(CP(=O)(O)Cc1ccccc1F)C(=O)O` (stereo not drawn), affinity at NAALADase was put at a Ki of 145 nM.

At NAALADase, `Cc1ccc(P(=O)(O)CC(CCC(=O)O)C(=O)O)cc1` (stereo not drawn) yielded a Ki of 204 nM.

The molecule `O=C(O)C(CCc1ccccc1)CP(=O)(O)O` (stereo not drawn) yielded an inhibition constant Ki on NAALADase of 199 nM.

`O=C(O)CCCC(CP(=O)(O)O)C(=O)O` (stereo not drawn) showed a Ki on NAALADase of 185 nM.

Molecule `O=C(O)CCC(CP(=O)(O)Cc1ccc(OCc2ccccc2)cc1)C(=O)O` (stereo not drawn) returned an inhibition constant Ki at NAALADase of 177 nM.

Consider `O=C(O)CCC(CP(=O)(O)Cc1cccc(C(F)(F)F)c1)C(=O)O` (stereo not drawn), for which the inhibition constant Ki at NAALADase amounted to 22 nM.

`O=C(O)CCC(CP(=O)(O)Cc1ccccc1C(F)(F)F)C(=O)O` (stereo not drawn) gave a Ki on NAALADase of 92 nM.

For the molecule `O=C(O)CCC(CP(=O)(O)Cc1ccc(O)cc1)C(=O)O` (stereo not drawn), the Ki at NAALADase was 117 nM.

Molecule `CC(CP(=O)(O)O)C(=O)O` (stereo not drawn) registered an inhibition constant Ki at NAALADase of 2 nM. Against the preceding molecule, the Ki is about 58-fold lower.

Consider `O=C(O)C(Cc1ccccc1)CP(=O)(O)O` (stereo not drawn), for which, on NAALADase, the Ki is 548 nM.

The molecule `O=C(O)CCP(=O)(O)O` had a Ki on NAALADase of 234 nM.

The molecule `COC(=O)c1ccc(CP(=O)(O)CC(CCC(=O)O)C(=O)O)cc1` (stereo not drawn) gave a Ki at NAALADase of 740 nM.

For `CC(C)(C)OC(=O)CCC(CP(=O)(CC(CCC(=O)O)C(=O)O)OC(C)(C)C)C(=O)OC(C)(C)C` (stereo not drawn), the Ki at NAALADase was 4250 nM.

In turn, `O=C(O)CCC(CP(=O)(O)CC(CCC(=O)OCc1ccccc1)C(=O)OCc1ccccc1)C(=O)O` (stereo not drawn) yielded an inhibition constant Ki at NAALADase of 13 nM. This Ki is about 330-fold lower than that of the molecule before.

As to `O=C(O)CCC(CP(=O)(O)CC(CCC(=O)O)C(=O)O)C(=O)O` (stereo not drawn), on NAALADase, the Ki amounted to 0.6 nM.

On NAALADase, `CC(CP(=O)(O)CC(CCC(=O)O)C(=O)O)C(=O)OCc1ccccc1` (stereo not drawn) displayed a Ki of 95 nM.

For the molecule `CC(CP(=O)(O)CC(CCC(=O)O)C(=O)O)C(=O)O` (stereo not drawn), at NAALADase, the Ki came to 2 nM.

On to `O=C(O)CCC(CP(=O)(O)C(NCc1ccccc1)c1ccccc1)C(=O)O` (stereo not drawn), for which affinity on NAALADase was put at a Ki of 313 nM.

Molecule `O=C(O)CCC(CP(=O)(O)C(NC(=O)O)c1ccccc1)C(=O)O` (stereo not drawn) gave a Ki on NAALADase of 2000 nM. Compared with the last molecule, the Ki is about 6.4-fold higher.

`O=C(O)CCC(CP(=O)(O)CNCc1ccccc1)C(=O)O` (stereo not drawn) displayed a Ki at NAALADase of 52 nM.

`CC(=O)NCP(=O)(O)CC(CCC(=O)O)C(=O)O` (stereo not drawn) displayed a Ki at NAALADase of 118 nM.

For `O=C(O)CCC(CP(=O)(O)CN(Cc1ccccc1)Cc1ccccc1)C(=O)O` (stereo not drawn), on NAALADase, the Ki was determined as 175 nM.

With `O=C(O)CCC(CP(=O)(O)CN1C(=O)c2ccccc2C1=O)C(=O)O` (stereo not drawn), the affinity on NAALADase corresponds to a Ki of 34 nM.

`O=C(O)CCC(CP(=O)(O)CNC(=O)c1ccccc1)C(=O)O` (stereo not drawn) showed a Ki on NAALADase of 142 nM.

At NAALADase, `O=C(O)CCC(CP(=O)(O)CNS(=O)(=O)c1ccccc1)C(=O)O` (stereo not drawn) showed a Ki of 90 nM.

`O=C(O)CCC(CP(=O)(O)CNc1ccc(F)cc1)C(=O)O` (stereo not drawn): on NAALADase, the Ki was 9 nM.

Molecule `COc1ccc(NCP(=O)(O)CC(CCC(=O)O)C(=O)O)cc1` (stereo not drawn) returned a Ki on NAALADase of 2 nM.

In turn, `Cc1ccc(NCP(=O)(O)CC(CCC(=O)O)C(=O)O)cc1` (stereo not drawn) had a Ki at NAALADase of 5 nM.

As to `CC(C)(C)c1ccc(NCP(=O)(O)CC(CCC(=O)O)C(=O)O)cc1` (stereo not drawn), on NAALADase, the Ki was found to be 2 nM.

Regarding `O=C(O)CCC(CP(=O)(O)CNC(=S)Nc1ccccc1)C(=O)O` (stereo not drawn), the Ki on NAALADase is 75 nM.

On NAALADase, `CC(CS)CC(CCC(=O)O)C(=O)O` (mixture of isomers) [2-(3-sulfanyl-2-methylpropyl)pentanedioic acid] gave a Ki of 239 nM.

At NAALADase, `CCC(CS)C(CCC(=O)O)C(=O)O` (stereo not drawn) [2-(1-ethyl-2-sulfanylethyl)pentanedioic acid] gave a Ki of 1550 nM. Against the preceding molecule, the Ki is about 6.5-fold higher.

On to `CC(CS)C(CCC(=O)O)C(=O)O` (stereo not drawn) [2-(1-methyl-2-sulfanylethyl)penanedioic acid], for which the Ki on NAALADase came to 843 nM.

In turn, `CCCCC(S)CC(CCC(=O)O)C(=O)O` (stereo not drawn) [2-(2-sulfanylhexyl)pentanedioic acid] registered a Ki at NAALADase of 4750 nM.

In the case of `O=C(O)CCC(CCCS)C(=O)O` (stereo not drawn) [2-(3-sulfanylpropyl)pentanedioic acid], the “anxiolytic properties in passive avoidance” value (from here on “anxiolytic properties”) in assay [1] (Example 15, written in present tense) was “exhibit anxiolytic properties”.

For the molecule `O=C(O)CC(CP(=O)(O)O)C(=O)O` (stereo not drawn) [2-(phosphonomethyl) succinic acid], affinity on NAALADase was put at a Ki of 700 nM.

For `O=C(O)CCC(CCSSCCC(CCC(=O)O)C(=O)O)C(=O)O` (stereo not drawn) [2-[2-[(3,5-dicarboxypentyl)dithio]ethyl]pentanedioic acid], at NAALADase, the Ki is 16500 nM.

Molecule `O=C(O)CCC(CP(=O)(O)CCC(=O)O)C(=O)O` (stereo not drawn) [2-[[(2-carboxyethyl)hydroxyphosphinyl]methyl]pentanedioic acid] had a Ki on NAALADase of 2 nM.

In the case of `O=C(O)CCC(CP(=O)(O)Cc1c(F)c(F)c(F)c(F)c1F)C(=O)O` (stereo not drawn) [Compound 2, 2-[[(2,3,4,5,6-pentafluorobenzyl)hydroxyphosphinyl]methyl]pentanedioic acid], the “Latency to Cross, Acquisition Trial, MEAN” value in assay [1] (setting [2]) was determined as 6.7 s; in assay [1] (setting [3]), 7.5 s. For the same molecule, the “Latency to Cross, Acquisition Trial, individual animals” value was 4.0 seconds and 0.1 seconds (2×) and 14.9 seconds and 5.0 seconds and 6.4 seconds and 9.5 seconds and 4.6 seconds and 5.7 seconds and 13.0 seconds and 5.1 seconds and 6.2 seconds and 10.1 seconds and 4.3 seconds and 11.4 seconds in assay [1] (setting [2]); 0.0 s and 11.4 s and 12.1 s and 1.5 s and 1.6 s and 7.0 s and 6.8 s and 20.0 s and 2.3 s and 0.6 s and 9.6 s and 3.2 s and 10.4 s and 5.7 s and 18.7 s in assay [1] (setting [3]). The “Latency to Cross, Retention Trial, MEAN” value is 66.8^a seconds in assay [1] (Compound 2 100 mg/kg IP, first study (animals 31-45), significance difference compared to Group 1, p ≦ 0.05) and 29.6 s in assay [1] (Compound 2 100 mg/kg IP, second study (animals 103-414), animal 406 omitted). Besides, the “Latency to Cross, Retention Trial, individual animals” value is 9.8 seconds and 7.1 seconds and 4.8 seconds and 100.0 seconds (8×) and 88.4 seconds and 7.8 seconds and 15.8 seconds and 68.4 seconds in assay [1] (Compound 2 100 mg/kg IP, first study (animals 31-45), stimulus about 100 seconds); 3.1 seconds and 33.9 seconds and 100.0 seconds (2×) and 13.2 seconds and 6.6 seconds and 39.4 seconds and 7.9 seconds and 33.2 seconds and 8.4 seconds and 41.5 seconds and 19.5 seconds and 7.3 seconds and 100.0^b seconds and 0.3 seconds in assay [1] (Compound 2 100 mg/kg IP, second study (animals 103-414), animal 406 omitted from statistical analysis). For the same molecule, in assay [1] (Example 14), the “anxiolytic properties” value was “exhibit anxiolytic properties”. For the same molecule, the “performance compared with flurazepam in passive avoidance” value in assay [1] (Example 14) is reported as “performed better than the known anxiolytic agent, flurazepam”.

As for `O=C(O)CCC(CP(=O)(O)O)C(=O)O` (stereo not drawn) [Compound 3, 2-(phosphonomethyl)pentanedioic acid], the “Latency to Cross, Retention Trial, MEAN” value in assay [1] (Compound 3 100 mg/kg IP) stood at 43.0 s. In addition, in assay [1] (Compound 3 100 mg/kg IP group), the “Latency to Cross, Acquisition Trial, MEAN” value came to 7.8 s; the “Latency to Cross, Acquisition Trial, individual animals” value was 11.8 s and 11.5 s and 9.2 s and 0.8 s and 0.6 s and 2.9 s and 18.6 s and 9.3 s and 0.2 s and 2.0 s and 5.9 s and 6.1 s and 25.0 s and 2.2 s and 10.5 s. Besides, the “Latency to Cross, Retention Trial, individual animals” value in assay [1] (Compound 3 100 mg/kg IP, stimulus about 100 seconds) is 100.0 seconds (4×) and 4.6 seconds and 9.9 seconds and 47.4 seconds and 12.9 seconds and 20.6 seconds and 6.6 seconds and 33.0 seconds and 89.8 seconds and 5.2 seconds and 5.9 seconds and 8.5 seconds. In assay [1] (Example 14), the “anxiolytic properties” value is “exhibit anxiolytic properties” and the “performance compared with flurazepam in passive avoidance” value is listed as “performed better than the known anxiolytic agent, flurazepam”.

`O=C(O)CCC(CP(=O)(O)Cc1c(F)c(F)c(F)c(F)c1F)C(=O)O` (stereo not drawn) [drawing 45] showed an inhibition constant Ki at NAALADase of 23 nM.
